For series [1], the system named is sickle cell disease (SCD) patients. In words: HOPE trial: efficacy in sickle cell disease. It is filed as in vivo, human. As to the method:
The efficacy and safety of OXBRYTA in sickle cell disease (SCD) was evaluated in HOPE, a randomized, double-blind, placebo-controlled, multicenter trial [NCT 03036813]. In this study, 274 patients were randomized to daily oral administration of OXBRYTA 1,500 mg (N=90), OXBRYTA 900 mg (N=92), or placebo (N=92). Patients were included if they had from 1 to 10 vasoocclusive crisis (VOC) events within 12 months prior to enrollment and baseline hemoglobin (Hb) ≥5.5 to ≤10.5 g/dL. Eligible patients on stable doses of hydroxyurea for at least 90 days were allowed to continue hydroxyurea therapy throughout the study. Randomization was stratified by patients already receiving hydroxyurea (yes, no), geographic region (North America, Europe, Other), and age (12 to <17 years, 18 to 65 years). The trial excluded patients who received red blood cell (RBC) transfusions within 60 days and erythropoietin within 28 days of enrollment, had renal insufficiency, uncontrolled liver disease, were pregnant, or lactating.
The majority of patients had HbSS or HbS/beta^0-thalassemia genotype (90%) and were receiving background hydroxyurea therapy (65%). The median age was 24 years (range: 12 to 64 years); 46 (17%) patients were 12 to <17 years of age. Median baseline Hb was 8.5 g/dL (5.9 to 10.8 g/dL). One hundred and fifteen (42%) had 1 VOC event and 159 (58%) had 2 to 10 events within 12 months prior to enrollment.
Efficacy was based on Hb response rate defined as a Hb increase of >1 g/dL from baseline to Week 24 in patients treated with OXBRYTA 1,500 mg versus placebo. […] No outlier subgroups were observed. The distribution of Hb change from baseline for individual patients completing 24 weeks of treatment with OXBRYTA 1,500 mg or placebo is depicted in FIG. 8.
Additional efficacy evaluation included change in Hb and percent change in indirect bilirubin and percent reticulocyte count from baseline to Week 24 (Table 4).

In a further series the test system is pregnant rats. In words: Embryo-fetal development study in pregnant rats. It is filed as in vivo, rat. As to the method:
In embryo-fetal development studies, voxelotor was administered orally to pregnant rats at 15, 50, and 250 mg/kg/day (gestation days 7 through 17) and rabbits at 25, 75, and 150 mg/kg/day (gestation days 7 through 19) through organogenesis.

From patent publication US20230015823A1, “METHODS OF ADMINISTERING VOXELOTOR” (Global Blood Therapeutics, Inc., priority 2019, published 2023) come the findings set out here.

“Also recorded” adds a separate entry of the source.

Take `CC(C)n1nccc1-c1ncccc1COc1cccc(O)c1C=O` [voxelotor, 2-hydroxy-6-((2-(1-isopropyl-1H-pyrazol-5-yl)pyridin-3-yl)methoxy)benzaldehyde]: in series [1] (1,500 mg QD (N = 90)), the “Hemoglobin, adjusted mean change from baseline to Week 24” value was determined as 1.14 g/dL; the “Indirect Bilirubin, adjusted mean percent change from baseline to Week 24” value is recorded as −29.08%; the “Percent Reticulocyte Count, adjusted mean percent change from baseline to Week 24” value was −19.93%. For the same molecule, the “Hb response rate (Hb increase of >1 g/dL from baseline to Week 24)” value in series [1] (1,500 mg daily oral, 46/90, placebo 6.5%) amounted to 51.1%. In addition, in the series with pregnant rats (pregnant rats, oral 15, 50, 250 mg/kg/day, gestation days 7 through 17), the adverse developmental outcomes is given as “no adverse developmental effects; also recorded: no evidence of adverse developmental outcomes”. The “exposure at highest dose level (maternal toxicity observed) relative to exposure in patients at the recommended daily dose” value in the series on pregnant rats (rats, 250 mg/kg/day) is recorded as 2.8 times.
